The target in assay [1] is T1, IL-17A/F (Homo sapiens, UniProt Q16552+Q96PD4).
T1 construct: purchased R&D Systems
T1 sequence (Q16552 24-155): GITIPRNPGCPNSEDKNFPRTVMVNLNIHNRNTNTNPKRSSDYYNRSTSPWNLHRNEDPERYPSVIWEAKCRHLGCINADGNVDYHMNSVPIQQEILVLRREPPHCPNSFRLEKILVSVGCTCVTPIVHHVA
T1 sequence (Q96PD4 31-163): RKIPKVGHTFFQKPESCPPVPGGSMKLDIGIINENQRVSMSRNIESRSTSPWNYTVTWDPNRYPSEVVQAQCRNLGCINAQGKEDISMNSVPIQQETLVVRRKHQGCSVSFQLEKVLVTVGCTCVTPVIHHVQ
Briefly: IL-17A/F HEK-Blue cell assay (SEAP reporter). Conditions: HEK-Blue IL-17A reporter cells, IL17A/F 5 ng/mL, 20 hours, SEAP read at A630; read-out: HEK-Blue IL17AF (IC50 for IL-17A/F inhibition). The class given is cell-based.

Assay [2] deals with T2, IL-17A/A (Homo sapiens, UniProt Q16552).
T2 construct: purchased Genscript Z03228
T2 sequence (Q16552 24-155): T1 sequence (Q16552 24-155)
The experiment in a line: IL-17A/A HEK-Blue cell assay (SEAP reporter). The class given is cell-based. The conditions noted are these: HEK-Blue IL-17A reporter cells, IL17A/A 5 ng/mL, 20 hours, SEAP read at A630; read-out: HEK-Blue IL17AA (IC50 for IL-17A/A inhibition).

Bounds are passed on as bounds.

For `CCn1nccc1C(=O)N[C@H](c1cn2nc(C[C@H]3C[C@@H](C(F)(F)F)CNC3=O)c(N3CCN(C)[C@@H](C)C3)nc2n1)C1CCC(F)(F)CC1` [Compound 200], the figures for the IC50 in assay [1] and in assay [2] were 100 to 1000 nM and less than 100 nM, respectively.
For `CCn1nccc1C(=O)N[C@H](c1cn2nc(C[C@H]3C[C@@H](C(F)(F)F)CNC3=O)c(N[C@H]3CC[C@@H](OC)CC3)nc2n1)C1CCC(F)(F)CC1` [Compound 201], the IC50 in assay [1] is 100 to 1000 nM; in assay [2], less than 100 nM.
The corresponding values for `CCn1nccc1C(=O)N[C@H](c1cn2nc(C[C@H]3C[C@@H](C(F)(F)F)CNC3=O)c(C(C)C)nc2n1)[C@H]1CCCC(F)(F)C1` [Compound 205, N-((1S)—((S)-3,3-difluorocyclohexyl)(3-isopropyl-2-(((3R,5R)-2-oxo-5-(trifluoromethyl)piperidin-3-yl)methyl)imidazo[1,2-b][1,2,4]triazin-6-yl)methyl)-1-ethyl-1H-pyrazole-5-carboxamide] are less than 100 nM and less than 100 nM.
With `CCn1nccc1C(=O)N[C@H](c1cn2nc(C[C@H]3C[C@@H](C(F)(F)F)CNC3=O)c(C(C)C)nc2n1)[C@@H]1CCCC(F)(F)C1` [Compound 206, N-((1S)—((R)-3,3-difluorocyclohexyl)(3-isopropyl-2-(((3R,5R)-2-oxo-5-(trifluoromethyl)piperidin-3-yl)methyl)imidazo[1,2-b][1,2,4]triazin-6-yl)methyl)-1-ethyl-1H-pyrazole-5-carboxamide], the IC50 in assay [1] was 100 to 1000 nM; in assay [2], less than 100 nM.
As to `CC(C)n1nccc1C(=O)N[C@H](c1cn2nc(C[C@H]3C[C@@H](C(F)(F)F)CNC3=O)c(C3CCOCC3)nc2n1)[C@H]1CCCC(F)(F)C1` [Compound 211, N-((1S)—((S)-3,3-difluorocyclohexyl)(2-(((3R,5R)-2-oxo-5-(trifluoromethyl)piperidin-3-yl)methyl)-3-(tetrahydro-2H-pyran-4-yl)imidazo[1,2-b][1,2,4]triazin-6-yl)methyl)-1-isopropyl-1H-pyrazole-5-carboxamide], the IC50 in assay [1] and in assay [2] was less than 100 nM throughout.
On to `CCn1nccc1C(=O)N[C@H](c1cn2nc(C[C@H]3C[C@@H](C(F)(F)F)CNC3=O)c(C3(F)CCOCC3)nc2n1)C1CCC(F)(F)CC1` [Compound 212, N-((1S)-(4,4-difluorocyclohexyl)(3-(4-fluorotetrahydro-2H-pyran-4-yl)-2-(((3R,5R)-2-oxo-5-(trifluoromethyl)piperidin-3-yl)methyl)imidazo[1,2-b][1,2,4]triazin-6-yl)methyl)-1-ethyl-1H-pyrazole-5-carboxamide], for which the IC50 was 100 to 1000 nM in assay [1] and less than 100 nM in assay [2].
The corresponding values for `CCn1nccc1C(=O)N[C@H](c1cn2nc(C[C@H]3C[C@@H](C(F)(F)F)CNC3=O)c(CC3CCCOC3)nc2n1)C1CCC(F)(F)CC1` (stereo partly drawn) [Compound 213, N-((1S)-(4,4-difluorocyclohexyl)(2-(((3R,5R)-2-oxo-5-(trifluoromethyl)piperidin-3-yl)methyl)-3-((tetrahydro-2H-pyran-3-yl)methyl)imidazo[1,2-b][1,2,4]triazin-6-yl)methyl)-1-ethyl-1H-pyrazole-5-carboxamide] are 100 to 1000 nM and less than 100 nM.
The corresponding values for `CCn1nccc1C(=O)N[C@H](c1cn2nc(C[C@H]3C[C@@H](C(F)(F)F)CNC3=O)c(C(C)C(F)(F)F)nc2n1)C1CCC(F)(F)CC1` (stereo partly drawn) [Compound 214, N-((1S)-(4,4-difluorocyclohexyl)(2-(((3R,5R)-2-oxo-5-(trifluoromethyl)piperidin-3-yl)methyl)-3-(1,1,1-trifluoropropan-2-yl)imidazo[1,2-b][1,2,4]triazin-6-yl)methyl)-1-ethyl-1H-pyrazole-5-carboxamide] are 100 to 1000 nM and less than 100 nM.
In the case of `C=CCCc1nc2nc([C@@H](NC(=O)c3ccnn3CC)C3CCC(F)(F)CC3)cn2nc1C[C@H]1C[C@@H](C(F)(F)F)CNC1=O` [Compound 215, N-((1S)-(3-(but-3-en-1-yl)-2-(((3R,5R)-2-oxo-5-(trifluoromethyl)piperidin-3-yl)methyl)imidazo[1,2-b][1,2,4]triazin-6-yl)(4,4-difluorocyclohexyl)methyl)-1-ethyl-1H-pyrazole-5-carboxamide], the IC50 is 100 to 1000 nM in assay [1] and less than 100 nM in assay [2].
For `CCn1nccc1C(=O)N[C@H](c1cn2nc(C[C@H]3C[C@@H](C(F)(F)F)CNC3=O)c(C(C)(C)F)nc2n1)C1CCC(F)(F)CC1` [Compound 216, N-((1S)-(4,4-difluorocyclohexyl)(3-(2-fluoropropan-2-yl)-2-(((3R,5R)-2-oxo-5-(trifluoromethyl)piperidin-3-yl)methyl)imidazo[1,2-b][1,2,4]triazin-6-yl)methyl)-1-ethyl-1H-pyrazole-5-carboxamide] the same measures were 100 to 1000 nM and less than 100 nM.
The corresponding values for `Cn1nccc1C(=O)N[C@H](c1cn2nc(C[C@H]3C[C@@H](C(F)(F)F)CNC3=O)c(C3CCOCC3)nc2n1)[C@H]1CC[C@H](C)CC1` [Compound 218, 1-methyl-N—((S)-((1r,4S)-4-methylcyclohexyl)(2-(((3R,5R)-2-oxo-5-(trifluoromethyl)piperidin-3-yl)methyl)-3-(tetrahydro-2H-pyran-4-yl)imidazo[1,2-b][1,2,4]triazin-6-yl)methyl)-1H-pyrazole-5-carboxamide] are less than 100 nM and less than 100 nM.
For `CCn1nccc1C(=O)N[C@H](c1cn2nc(C[C@H]3C[C@H](C)CNC3=O)c(C3CCOCC3)nc2n1)C1CCC(F)(F)CC1` [Compound 219] the same measures were 100 to 1000 nM and less than 100 nM.
On to `CCn1nccc1C(=O)N[C@H](c1cn2nc(C[C@@H]3C[C@H](C)CNC3=O)c(C3CCOCC3)nc2n1)C1CCC(F)(F)CC1` [Compound 220], for which the IC50 was 100 to 1000 nM in assay [1] and less than 100 nM in assay [2].
For `CCc1nonc1C(=O)N[C@H](c1cn2nc(C[C@H]3C[C@@H](C(F)(F)F)CNC3=O)c(C3CCOCC3)nc2n1)C1CCCCC1` [Compound 221, N—((S)-cyclohexyl(2-(((3R,5R)-2-oxo-5-(trifluoromethyl)piperidin-3-yl)methyl)-3-(tetrahydro-2H-pyran-4-yl)imidazo[1,2-b][1,2,4]triazin-6-yl)methyl)-4-ethyl-1,2,5-oxadiazole-3-carboxamide] the same measures were 100 to 1000 nM and less than 100 nM.
For `CCn1nccc1C(=O)N[C@H](c1cn2nc(C[C@@H]3CC(F)(F)CNC3=O)c(C3CCOCC3)nc2n1)C1CCC(F)(F)CC1` [Compound 222], the figures for the IC50 in assay [1] and in assay [2] were more than 1000 nM and less than 100 nM, respectively.
For `CCn1nccc1C(=O)N[C@H](c1cn2nc(C[C@@H]3CC(F)(F)CNC3=O)c(C3CCOCC3)nc2n1)[C@H]1CC[C@H](C)CC1` [Compound 223] the same measures were 100 to 1000 nM and less than 100 nM.
The corresponding values for `CCn1nccc1C(=O)N[C@H](c1cn2nc(C[C@H]3C[C@@H](C(F)(F)F)CNC3=O)c(C3CCCN(CCOC)C3)nc2n1)C1CCC(F)(F)CC1` (stereo partly drawn) [Compound 226, N-((1S)-(4,4-difluorocyclohexyl)(3-(1-(2-methoxyethyl)piperidin-3-yl)-2-(((3R,5R)-2-oxo-5-(trifluoromethyl)piperidin-3-yl)methyl)imidazo[1,2-b][1,2,4]triazin-6-yl)methyl)-1-ethyl-1H-pyrazole-5-carboxamide] are more than 1000 nM and less than 100 nM.
The corresponding values for `Cn1ncnc1C(=O)N[C@H](c1cn2nc(C[C@H]3C[C@@H](C(F)(F)F)CNC3=O)c(C3CCOCC3)nc2n1)C1CCC(F)(F)CC1` [Compound 228] are more than 1000 nM and less than 100 nM.
For `CCn1nccc1C(=O)N[C@H](c1cn2nc(C[C@H]3C[C@@H](C(F)(F)F)CNC3=O)c(C3CCCCN3C)nc2n1)C1CCC(F)(F)CC1` (some centres unmarked) [Compound 230], the IC50 is more than 1000 nM in assay [1] and 100 to 1000 nM in assay [2].
For the compound `CCn1nccc1C(=O)N[C@H](c1cn2nc(C[C@H]3C[C@@H](C(F)(F)F)CNC3=O)c(C3CCS(=O)(=O)CC3)nc2n1)C1CCC(F)(F)CC1` [Compound 234, N—((S)-(4,4-difluorocyclohexyl)(3-(1,1-dioxidotetrahydro-2H-thiopyran-4-yl)-2-(((3R,5R)-2-oxo-5-(trifluoromethyl)piperidin-3-yl)methyl)imidazo[1,2-b][1,2,4]triazin-6-yl)methyl)-1-ethyl-1H-pyrazole-5-carboxamide], the IC50 is 100 to 1000 nM in assay [1] and less than 100 nM in assay [2].
`CCn1nccc1C(=O)N[C@H](c1cn2nc(C[C@H]3C[C@@H](C(F)(F)F)CNC3=O)c(N3CCOC[C@H]3C)nc2n1)C1CCC(F)(F)CC1` [Compound 236]: the figures for the IC50 in assay [1] and in assay [2] were 100 to 1000 nM and less than 100 nM, respectively.
Turning to `CCn1nccc1C(=O)N[C@H](c1cn2nc(C[C@H]3C[C@@H](C(F)(F)F)CNC3=O)c(N(C)CCOC)nc2n1)C1CCC(F)(F)CC1` [Compound 237, N—((S)-(4,4-difluorocyclohexyl)(3-((2-methoxyethyl)(methyl)amino)-2-(((3R,5R)-2-oxo-5-(trifluoromethyl)piperidin-3-yl)methyl)imidazo[1,2-b][1,2,4]triazin-6-yl)methyl)-1-ethyl-1H-pyrazole-5-carboxamide], the IC50 in assay [1] was 100 to 1000 nM; in assay [2] it was less than 100 nM.

The record behind these values is US20260226068A1, “IMIDAZOTRIAZINE IL-17A MODULATORS AND USES THEREOF” (DICE ALPHA, INC., priority 2023, published 2026).
